What was measured:
[1] = tested on: RP-B-01, RP-B-02 and T24 cell lines; assay: Alamar blue combination study with cisplatin; assay type: cell-based, human; details: combined with increasing concentrations of cisplatin, 72 h
Protocol: FIGS. 30A-30C. […] RP-B-01, RP-B-02, and T24 cell lines were treated with increasing concentrations of cisplatin in combination with a single dose of either APX2009 or APX2014 as indicated (n=3±SE). Cell proliferation was normalized to Saline control and expressed as Fold Change. Combination index (CI) values calculated with Compusyn for combination of APX inhibitors and cisplatin. CI values indicated mainly additivity (0.95-1.2) to synergy (0.8-0.94).
Bladder cancer cell lines (BLCAb001 (RP-B-01) and BLCAb002 (RP-B-02) maintained in RPMI growth medium with 10% FBS were plated at 4,000 cells/well in poly-D-lysine treated 96-well clear bottom black plates and grown overnight in 5% CO2 at 37° C. Cells in monolayer were then treated with increasing concentrations of redox-specific inhibitor APX3330, APX2014 or APX2009 and serially diluted 1:2 in a 5-point dose scheme. For combination studies, cells were treated with both cisplatin and APX compounds to determine efficacy. After 72 hours, fresh RPMI medium with 5% FBS was exchanged, and a fluorescent metabolic indicator, Alamar Blue was added to each well at 10% final concentration. After a 4 hour incubation, plates were read on a Synergy H4 (Bio-Tek) plate reader. […]
APE1/Ref-1 inhibition enhances cisplatin's therapeutic effect. […] Cell proliferation was assessed using Alamar blue 72 h after drug treatment.

NFκB = assay: NFκB-driven luciferase reporter; assay type: cell-based, human; details: T24 and UC3 cells induced with TNFa, IC50 concentration, 24 h
Protocol: FIGS. 36A-36H. […] In cytokine-induced T24 and UC3 cells NFκB-driven luciferase (FIG. 36A), STAT3-driven luciferase (FIG. 36B), and AP-1-driven luciferase (FIG. 36C) were quantified and normalized via Renilla following treatment with the corresponding cell growth-inhibitory IC50 concentrations. T24 cells were treated with APX2009 (8.5 μM) and APX2014 (6.5 μM), and UC3 cells were treated with APX2009 (6.1 μM) and APX2014 (4.6 μM) for 24 h. (*-p<0.05 APX treated vs vehicle, n=4). […] In the panels of FIGS. 36F & 36G, co-expression of survivin and APE1/Ref-1 was analyzed in superficial (FIG. 36F) and invasive human bladder tumors (FIG. 36G) in patients, and found nearly universal overlap of positivity in both in human samples. This was also true in cisplatin-refractory patients from the tissue microarray specimens (FIG. 36H).
The transcriptional activity of NFκB, STAT3, and AP-1 is under redox control by APE1/Ref-1. Therefore, NFκB, STAT3, or AP-1 transcriptional activity was quantified following treatment with APE1/Ref-1 redox inhibitors (FIGS. 36A-36C).

sensory neurons = assay: Ex vivo model of sensory neurons in culture (neurotoxicity); assay type: cell-based
MCF-7 tumor cells = assay: MTS cell survival assay MCF-7; assay type: cell-based, human; details: about 24 or 72 h
Protocol: (§1) Decreased cancer cell survival. MCF-7 or OVCAR-3 cells (about 2-4,000) were aliquoted into each well of a 96-well plate in triplicate and allowed to adhere overnight. APX3330 (RN3-3) was added to the cultures. After about 24 or 72 h, about 0.05 mg/mL 3-(4-5-Dimethylthiazol-2-yl)-5-(3-carboxymethoxyphenyl)-2-(4-sulfophenyl)-2H-tetrazolium salt (MTS) reagent was added to each well and incubated at about 37° C. for about 4 h followed by absorbance measurement at 490 nm. The values were standardized to wells containing media alone. […] Similar effects can be seen in multiple myeloma, prostate, non-small cell lung carcinoma, colon, and glioma derived cells.

HL-60 cells = assay: HL-60 differentiation and apoptosis with retinoic acid; assay type: cell-based
Protocol: APX3330 in combination with Retinoic Acid. […] HL-60 cells were treated with either vehicle (EtOH; control), APX3330, retinoic acid (RA) or APX3330 and RA at the concentrations indicated and morphology determined on day six. Morphological analysis indicated an increase in the differentiation of the HL-60 cells treated with APX3330 (RN3-3).

OVCAR-3 tumor cells = assay: MTS cell survival assay OVCAR-3; assay type: cell-based, human; details: about 24 or 72 h
Protocol: as §1

[2] = tested on: VEGF release from Hey-C2, SKOV-3X, Panc1, PaCa-2 and Igrov cells; assay: VEGF ELISA on cancer cell supernatants; assay type: cell-based, human; details: normoxia and hypoxia, about 24 hrs
Protocol: Inhibition of VEGF release. VEGF enzyme-linked immunosorbent assay (ELISA). Various cancer cell lines were plated in a 24-well plate and treated in duplicates with for about 24 hrs in normoxic (about 21% oxygen) or hypoxic (about 2% oxygen) condition. The supernatants of cells were collected and subjected to an ELISA assay with a kit specific for human VEGF according to the manufacturer (R&D Systems, Minneapolis, Minn.) VEGF ELISA assay results were read in a 96-well format plate reader by measuring absorbance at 450 nm with correction at 540 nm. Hypoxia induced an increase in VEGF release (FIG. 2). (For FIGS. 2-7, black bars=normoxia; gray bars=hypoxia.)
VEGF ELISA Assays. Hey-C2 (ovarian cancer), SKOV-3X (ovarian cancer), Pancl (pancreatic cancer), PaCa-2 (pancreatic cancer), and Igrov (ovarian cancer) cells were plated in a 24-well plate and treated in duplicates with (RN3-3 e) at different concentrations for about 24 hrs in normoxic (about 21% oxygen) or hypoxic (about 2% oxygen) condition. The supernatants of cells were collected and subjected to an ELISA assay with a kit specific for human VEGF according to the manufacturer (R&D Systems, Minneapolis, Minn.). VEGF ELISA assay results were read in a 96-well format plate reader by measuring absorbance at 450 nm with correction at 540 nm.

| SMILES | cellular proliferation when combined with cisplatin [1] | reduction of NFκB-driven luciferase activity (NFκB) [fold] | neuroprotection against platinum-induced toxicity (sensory neurons) | killing of MCF-7 tumor cells (MCF-7 tumor cells) | increase in cells undergoing apoptosis, APX3330 and RA compared with RA alone (HL-60 cells; 25 μM APX3330, day 6) | reduction of RA required for same level of differentiation (CD11) (HL-60 cells; addition of APX3330 to RA) | cell differentiation in combination with retinoic acid (HL-60 cells; day six, morphology) | HL-60 cells undergoing apoptosis (annexin/PI) at lower doses of RA (HL-60 cells; lower doses of RA) | killing of OVCAR-3 tumor cells (OVCAR-3 tumor cells) | VEGF release [2] |
| --- | --- | --- | --- | --- | --- | --- | --- | --- | --- | --- |
| CCC/C(=C\C1=C(OC)C(=O)c2ccccc2C1=O)C(=O)N(CC)CC [APX2009, [(2E)-2-[(3-methoxy-1,4-dioxo-1,4-dihydronaphthalen-2-yl)methylidene]-N,N-diethylpentanamide]] | further reduction in cellular proliferation | 2 | neuroprotective against cisplatin and oxaliplatin-induced toxicity of sensory neurons | – | – | – | – | – | – | – |
| CCCCCCCCC/C(=C\C1=C(C)C(=O)C(OC)=C(OC)C1=O)C(=O)O [APX3330] | – | – | – | dose dependently killed | ~1.5 | about 1000 fold | enhanced the effects of retinoic acid on promoting cell differentiation | did not significantly enhance the level of HL-60 cells undergoing apoptosis | dose dependently killed | reduced the amount of VEGF release |

Source: patent US11331294B2, “Benzoquinone derivative E3330 in combination with chemotherapeutic agents for the treatment of bladder cancer” (Indiana University Research and Technology Corporation, priority 2007, dated 2022)
